US9656984B2, “PI3K/AKT/mTOR inhibitors and pharmaceutical uses thereof” (UNIVERSITE DE RENNES 1, priority 2013, dated 2017)

Key:
[1] = target: T1, mTORC1 (Homo sapiens, UniProt P42345); assay: Immunoblot of mTORC1 activity in TSC2^−/− AML cells; type: cell-based; parameters: AML cells (1.10^6 cells) deficient for TSC2 (TS2^−/−) or reconstituted with wild type TSC2; endogenous in cells; host or cells: AML (angiomyolipoma) cells from a patient, TSC2-/- or reconstituted with wild type TSC2; conditions: 10 μM, FIG. 15
Description: AML cells (1.10^6 cells) deficient for TSC2 (TS2^−/−) or reconstituted with wild type TSC2 (TSC2^+/+) (generous gift from Dr M. Pende, Paris) were treated or untreated for indicated times with 10 μM of compound 25 or rapamycin and then cells were lyzed. 100 μg of protein was loaded and resolved by SDS-PAGE and indicated immunoblots were performed. Total S6 and β-actin serve as loading controls. S6 is phosphorylated by p70S6K on its serine 240 and 244. 4EBP1 is phosphorylated by mTORC1 on its Threonine at positions 37 and 46. p70S6K and 4EBP1 are direct substrates of mTORC1. mTORC1-driven phosphorylation of 4EBP1 can be monitored by the appearance of a high molecular weight band which disappears in presence of compound 25 or Rapamycin (see FIG. 15). Of note, restoration of TS2 expression in AML cells reduces the basal level of S6 and 4EBP1 phosphorylation.
Immunoblots Excepted for immunoprecipitation experiments in which cells were lyzed with RIPA buffer, cells were lyzed for 30 min at 4° C. in Lysis buffer (25 mM HEPES pH 7.4, 1% v/v Triton X-100, 150 mM NaCl, 2 mM EGTA supplemented with a mix of protease inhibitors). Protein concentration was determined by the bicinchoninic acid method (Pierce, Rockford, Ill., USA) according to the manufacturer's protocol. Proteins were resolved by 8, 10 or 12% SDS-PAGE and transferred to a nitrocellulose membrane (GE Healthcare, Buckinghamshire, UK). […]

[2] = tested on: MDA-MB-453 (HER2 positive) breast tumor cell line; assay: Cell death by MTT assay, MDA-MB-453; type: cell-based, human; conditions: 24 hours, mean of two experiments
Description: The ER-positive breast tumor cell lines MCF-7 and T47-D and the HER2 positive breast tumor cell lines MDA-MB-453 and BT474 (also ER-positive) were incubated with the indicated concentration of each mentioned compound of formula (I) for 24 hours and then cell death was assessed using MTT assay.
For each cell line, the percentage of cell death (mean of four experiments for cell lines MCF-7 and T47-D, and two experiments for cell lines MDA-MB-453 and BT474) is given in view of the increasing concentration of each tested compound of the invention.
Cell viability was assessed using the 3-[4,5-dimethylthiazol-2-yl]-2,5-diphenyltetrazolium bromide (MTT) viability assay (1). In brief, cells (4×10^4 per well) were cultured for 20 h in flat-bottomed 96 well plates with various concentrations of the apoptosis inducer. Then 0.015 ml of MTT (5 mg/ml in PBS) was added to each well and incubated for 4 h at 37° C. Formazan salt precipitats were dissolved by adding 0.115 ml of isopropyl alcohol containing 1% formic acid (v/v), and the absorbance was measured at 570 nm.

[3] = tested on: BT549 cells; assay: Boyden chamber cell migration, BT549 stimulated with CD95L; type: cell-based, human; conditions: BT549, 1 μM, CD95L 100 ng/ml, 24 hours, FIG. 17A
Description: TNBC (MDA-MB-231 and BT549) cell lines were pre-incubated for 1 hour in presence or absence of non-cytotoxic amount of compound 25 (1 μM) and then treated or untreated with CD95L (100 ng/ml) for 24 hours. Cell migration was analyzed using Boyden chamber assay. Migrating Giemsa-stained cells were lysed and absorbance was measured at a wavelength of 560 nm. Values represent the means±SEM of three independently performed experiments. *p<0.05 as calculated using two-tailed Mann-Whitney test.
After membrane hydration of Boyden chambers (Millipore, Molsheim, France) containing 8 μm pore membranes, 10^5 cells were added to the top chamber. The bottom chamber was filled with low serum (1%)-containing medium in the presence or absence of cl-CD95L (100 ng/ml). Breast cancer cells were incubated for 24 h. To quantify invasion, cells were fixed with methanol and stained with Giemsa. Stained cells were then removed from the top-side of the membrane using a cotton-tipped swab and five representative pictures for each insert were taken of the invading cells from the reverse side. For each experiment, invading cells were lysed and absorbance at 560 nm was measured.

[4] = tested on: PI3K/AKT activity (AKT phosphorylation); assay: PI3K/AKT/mTOR pathway inhibitory activity: level of AKT phosphorylation in CEM cells over time; type: cell-based, human; conditions: 10 μM, FIGS. 7 and 8
Description: The CEM cell was incubated with 10 μM of each mentioned compound of formula (I) for the indicated times and then cells were lysed and 100 μg of protein was loaded per line and resolved by SDS-PAGE. The levels of AKT phosphorylation (hallmark of PI3K activation) and total AKT (loading control) were analyzed by Western blot and the amount of AKT phosphorylation relative to the total amount of protein AKT was quantified by densitometric analysis, the intensity of each band was scanned and the level of AKT phosphorylation was reported to the amount of whole AKT and the percentage of phosphorylated-AKT was depicted.
(§1) Immunoblots Excepted for immunoprecipitation experiments in which cells were lyzed with RIPA buffer, cells were lyzed for 30 min at 4° C. in Lysis buffer (25 mM HEPES pH 7.4, 1% v/v Triton X-100, 150 mM NaCl, 2 mM EGTA supplemented with a mix of protease inhibitors). Protein concentration was determined by the bicinchoninic acid method (Pierce, Rockford, Ill., USA) according to the manufacturer's protocol. Proteins were resolved by 8, 10 or 12% SDS-PAGE and transferred to a nitrocellulose membrane (GE Healthcare, Buckinghamshire, UK). The membrane was blocked 15 min with TBST (50 mM Tris, 160 mM NaCl, 0.05% v/v Tween 20, pH 7.4) containing 5% w/v dried skimmed milk (TBS™). Primary antibody was incubated overnight at 4° C. in TBS™. The membrane was intensively washed (TBST) and then the peroxydase-labeled anti-mouse IgG1 or IgG2a (CliniSciences, Nanterre, France) was added for 45 min. Proteins were visualized with the enhanced chemiluminescence substrate kit (ECL RevelBIOt®, Ozyme, Saint Quentin en Yvelines, France).

[5] = target: T1, mTORC1; assay: Immunoblot of mTORC1 substrates p70S6K-Thr389 and 4EBP1-Thr37 and 46 in CEM cells; type: cell-based; parameters: AML cells (1.10^6 cells) deficient for TSC2 (TS2^−/−) or reconstituted with wild type TSC2; endogenous in cells; conditions: 2 hours, FIG. 16
Description: CEM cells (1·10^6 cells) were incubated with indicated concentrations of compound 25 for 2 hours and lysates of the cells were subjected to Western blot analysis. Inhibitory activity of compound 25 on mTORC1 substrates p70S6K-Thr389 and 4EBP1-Thr37 and 46 and on mTORC2 substrate Akt-Ser473 and on PDK1 substrate Akt-Thr308 was evaluated by immunoblotting. Total 4EBP1, p70S6K, Akt and […] serve as loading controls. The compounds of the invention and more particularly compound 25 may be competitive inhibitors of mTOR because they inhibit mTORC1 (4EBP1 and p70S6K) and mTORC2 substrates (AKT at S473) as shown in FIG. 16.
as §1, with “The membrane was intensively washed (TBST) and then the peroxydase-labeled anti-mouse IgG1 or IgG2a (CliniSciences, Nanterre, France) was added for 45 min. Proteins were visualized with the enhanced chemiluminescence substrate kit (ECL RevelBIOt®, Ozyme, Saint Quentin en Yvelines, France).” left out

O=[N+]([O-])C1=Cc2cc(Br)cc(Br)c2OC1c1ccc(Br)cc1 (stereo not shown) [Compound 25, 6,8-dibromo-2-(4-bromo-phenyl)-3-nitro-2H-chromene]
mTORC1 activity in TSC2^−/− cells [1]: inhibit mTORC1 activity | mTORC1-driven phosphorylation of 4EBP1 (high molecular weight band) ([1]; AML cells): disappears | percentage of cell death ([2]; MDA-MB-453, 0.390625 μM): 0% | percentage of cell death ([2]; MDA-MB-453, 0.78125 μM): 9.09% | percentage of cell death ([2]; MDA-MB-453, 1.5625 μM): 81% | percentage of cell death ([2]; MDA-MB-453, 3.125 μM): 85.57% | percentage of cell death ([2]; MDA-MB-453, 6.25 μM): 89.213% | percentage of cell death ([2]; MDA-MB-453, 12.5 μM): 95.09% | percentage of cell death ([2]; MDA-MB-453, 25 μM): 99.35% | percentage of cell death ([2]; MDA-MB-453, 50 μM): 100.76% | migration of tumor cells stimulated with CD95L [3]: abrogate | inhibitory activity on PI3K/AKT (level of AKT phosphorylation) [4]: very strong inhibitors | inhibitory activity on mTORC1 substrates (4EBP1 and p70S6K) [5]: inhibit
